The values below come from patent US10800791B2, “Triazole ACC inhibitors and uses thereof” (Gilead Apollo, LLC, priority 2015, dated 2020).

One experiment has as its system C. krusei. Kind of experiment: Antifungal Activity Assay (broth microtiter MIC), C. krusei. Format: cell-based, Candida krusei. Conditions: Pichia kudriavzevii, ATCC6258, 48 h. In a few lines: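 MICs were scored by eye at 48 h relative to the growth control. Plates followed CLSI M27-A3, with Candida suspensions in RPMI 1640+MOPS giving a final 2.5×10^3 CFU/mL; the colonies came from Sabouraud agar grown overnight at 35 °C.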

Experiment [1] has as its system Fusarium moniliforme (Fm). The experiment is described as follows: Growth inhibition assay of fungal pathogens, Fm. Conditions: for IC90: Fusarium verticillioides, 48 h, read-out: Concentration at 90% Inhibition Fm. The experiment is classed as cell-based. In outline: (§1)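 Percent inhibition derived at 48 hours from OD600 and visual scores versus 2% DMSO control, with media+DMSO blank as background. Spore inocula in 17% V8 medium were sized from 48 h growth curves; compounds tested at final 50/10/2 or 2/0.4/0.08 ppm.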

For experiment [2], the system named is Fusarium virguliforme (Fv). The experiment is described as follows: Growth inhibition assay of fungal pathogens, Fv. The experiment is classed as cell-based. Conditions: 48 h. In a few lines: as §1
Where [3] appears, read: Table 3a, ATCC 6258, 3 replicates, MIC recorded at 48 h, read-out: MIC, C. krusei ATCC 6258.
Setting [4] is: Table 3b (additional results), ATCC 6258, 3 replicates, MIC recorded at 48 h, read-out: MIC, C. krusei ATCC 6258.
Where [5] appears, read: Fusarium moniliforme, growth inhibition at 48 hours vs 2% DMSO control.
[6] abbreviates: Fusarium moniliforme, growth inhibition vs 2% DMSO control at 48 hours.
[7] abbreviates: growth inhibition at 48 hours vs 2% DMSO control, read-out: Concentration at 90% Inhibition Fv.
Where [8] appears, read: growth inhibition vs 2% DMSO control at 48 hours, read-out: Concentration at 90% Inhibition Fv.
Where [9] appears, read: read-out: MIC, C. krusei ATCC 6258, Table 3a, 3 replicates, MIC recorded at 48 h.
The mark [10] stands for this setting: read-out: MIC, C. krusei ATCC 6258, Table 3b (additional results), 3 replicates, MIC recorded at 48 h.
The mark [11] stands for this setting: read-out: Concentration at 90% Inhibition Fv, Fusarium virguliforme, growth inhibition at 48 hours vs 2% DMSO control.
[12] abbreviates: read-out: Concentration at 90% Inhibition Fv, Fusarium virguliforme, growth inhibition vs 2% DMSO control at 48 hours.

For orientation: MIC means the least concentration at which growth counts as inhibited.

Each structure is given as a SMILES string. In brackets after ≈: the same amount, converted by molar mass. Like-named read-outs stand apart in the source and are kept apart here. Where only a bound is given, the exact number is not on record here.

With `Cc1c(-n2nccn2)sc2c1c(=O)n(C(C)(C)C(=O)NC(C)C)c(=O)n2C[C@H](OC(C)C)c1cc(F)ccc1OCC1COC1` [Compound I-55, (R)-2-(1-(2-(5-fluoro-2-(oxetan-3-ylmethoxy)phenyl)-2-isopropoxyethyl)-5-methyl-2,4-dioxo-6-(2H-1,2,3-triazol-2-yl)-1,4-dihydrothieno[2,3-d]pyrimidin-3(2H)-yl)-N-isopropyl-2-methylpropanamide], the minimum inhibitory concentration (MIC) with C. krusei (setting [3]) lay within 0.25 to 1 µg/mL (≈ 0.389 to 1.56 µM); with C. krusei (setting [4]) it was 1.01 to 2 µg/mL (≈ 1.57 to 3.11 µM). For the same molecule, the IC90 in experiment [1] (setting [5]) was determined as 0.08 µg/mL (≈ 0.124 µM); in experiment [1] (setting [6]), 0.08 µg/mL (≈ 0.124 µM); in experiment [2] (setting [7]), 0.4 µg/mL (≈ 0.622 µM); in experiment [2] (setting [8]), 0.4 µg/mL (≈ 0.622 µM).
For `Cc1c(-n2nccn2)sc2c1c(=O)n(C(C)(C)C(=O)NC(C)C)c(=O)n2C[C@H](OC(C)C)c1cc(F)ccc1OCC#N` [Compound I-56, (R)-2-(1-(2-(2-(cyanomethoxy)-5-fluorophenyl)-2-isopropoxyethyl)-5-methyl-2,4-dioxo-6-(2H-1,2,3-triazol-2-yl)-1,4-dihydrothieno[2,3-d]pyrimidin-3(2H)-yl)-N-isopropyl-2-methylpropanamide], the minimal inhibitory concentration (MIC) lay in the range of 0.06 to 0.24 µg/mL (≈ 0.0981 to 0.392 µM) in the experiment on C. krusei (setting [9]) and 0.25 to 1 µg/mL (≈ 0.409 to 1.63 µM) in the experiment with C. krusei (setting [10]). Further, the “Concentration at 90% Inhibition Fm” value in experiment [1] (setting [5]) is on record as “AA (compound concentration of 0.08 ppm at 90% inhibition of fungal pathogens)”. For the same molecule, the IC90 in experiment [1], in experiment [2] (setting [11]) and in experiment [2] (setting [12]) was 0.08 µg/mL (≈ 0.131 µM) each time.
For the molecule `COc1ccc(F)cc1[C@H](Cn1c(=O)n(C(C)(C)C(=O)N2CC=CC2)c(=O)c2c(C)c(-n3nccn3)sc21)OC1CCOCC1` [Compound I-62, (R)-3-(1-(2,5-dihydro-1H-pyrrol-1-yl)-2-methyl-1-oxopro-pan-2-yl)-1-(2-(5-fluoro-2-methoxyphenyl)-2-((tetrahydro-2H-pyran-4-yl)oxy)ethyl)-5-methyl-6-(2H-1,2,3-triazol-2-yl)thieno[2,3-d]pyrimidine-2,4(1H,3H)-dione], the MIC with C. krusei (setting [3]) and in the experiment with C. krusei (setting [4]) was 0.25 to 1 µg/mL (≈ 0.391 to 1.57 µM) in each case. In addition, the IC90 in experiment [1] (setting [5]) turned out to be 0.08 µg/mL (≈ 0.125 µM); in experiment [1] (setting [6]), 0.08 µg/mL (≈ 0.125 µM); in experiment [2] (setting [7]), 0.4 µg/mL (≈ 0.626 µM); in experiment [2] (setting [8]) it was 0.4 µg/mL (≈ 0.626 µM).
In the case of `COc1ccc(F)cc1[C@H](Cn1c(=O)n(C(C)(C)C(=O)N2CC=CC2)c(=O)c2c(C)c(-n3nccn3)sc21)OC[C@@H](C)O` [Compound I-63, 3-(1-(2,5-dihydro-1H-pyrrol-1-yl)-2-methyl-1-oxopropan-2-yl)-1-((R)-2-(5-fluoro-2-methoxyphenyl)-2-((R)-2-hydroxypropoxy)ethyl)-5-methyl-6-(2H-1,2,3-triazol-2-yl)thieno[2,3-d]pyrimidine-2,4(1H,3H)-dione], the MIC in the experiment on C. krusei (setting [3]) is 0.25 to 1 µg/mL (≈ 0.408 to 1.63 µM); in the experiment on C. krusei (setting [4]) it was above 4.01 µg/mL. Besides, the IC90 in experiment [1] (setting [5]) is 0.08 µg/mL (≈ 0.131 µM); in experiment [1] (setting [6]) it was 0.08 µg/mL (≈ 0.131 µM); in experiment [2] (setting [7]) it was 0.4 µg/mL (≈ 0.653 µM); in experiment [2] (setting [8]) it was 0.4 µg/mL (≈ 0.653 µM).
For the molecule `COCCO[C@@H](Cn1c(=O)n(C(C)C(=O)N2CCCC2)c(=O)c2c(C)c(-n3nccn3)sc21)c1cc(F)ccc1OC` (stereo partly drawn) [Compound I-64, 1-((R)-2-(5-fluoro-2-methoxyphenyl)-2-(2-methoxy-ethoxy)ethyl)-5-methyl-3-(1-oxo-1-(pyrrolidin-1-yl)propan-2-yl)-6-(2H-1,2,3-triazol-2-yl)thieno[2,3-d]pyrimidine-2,4(1H,3H)-dione], the MIC with C. krusei (setting [3]) is 2.1 to 4 µg/mL (≈ 3.5 to 6.66 µM); in the experiment on C. krusei (setting [4]) it was 2.01 to 4 µg/mL (≈ 3.35 to 6.66 µM). For the same molecule, the IC90 in experiment [1] (setting [5]), in experiment [1] (setting [6]), in experiment [2] (setting [7]) and in experiment [2] (setting [8]) was 0.4 µg/mL (≈ 0.666 µM) each time.
`COCCO[C@@H](Cn1c(=O)n([C@H](C)C(=O)N2CCCC2)c(=O)c2c(C)c(-n3nccn3)sc21)c1cc(F)ccc1OC` [Compound I-65, 1-((R)-2-(5-fluoro-2-methoxyphenyl)-2-(2-methoxy-ethoxy)ethyl)-5-methyl-3-((R)-1-oxo-1-(pyrrolidin-1-yl)propan-2-yl)-6-(2H-1,2,3-triazol-2-yl)thieno[2,3-d]pyrimidine-2,4(1H,3H)-dione]: the MIC fell in the range of 2.1 to 4 µg/mL (≈ 3.5 to 6.66 µM) with C. krusei (setting [3]) and 2.01 to 4 µg/mL (≈ 3.35 to 6.66 µM) with C. krusei (setting [4]). Also, the IC90 in experiment [1] (setting [5]), in experiment [1] (setting [6]), in experiment [2] (setting [7]) and in experiment [2] (setting [8]) was 0.4 µg/mL (≈ 0.666 µM) in each case.
Take `COCCCO[C@@H](Cn1c(=O)n(C(C)(C)C(=O)N2CCCC2)c(=O)c2c(C)c(-n3nccn3)sc21)c1cc(F)ccc1OC` [Compound I-68, (R)-1-(2-(5-fluoro-2-methoxyphenyl)-2-(3-methoxy-propoxy)ethyl)-5-methyl-3-(2-methyl-1-oxo-1-(pyrrolidin-1-yl)propan-2-yl)-6-(2H-1,2,3-triazol-2-yl)thieno[2,3-d]pyrimidine-2,4(1H,3H)-dione]: in the experiment with C. krusei (setting [4]), the MIC was 2.01 to 4 µg/mL (≈ 3.2 to 6.36 µM). Further, the IC90 in experiment [1] (setting [5]) was 0.08 µg/mL (≈ 0.127 µM); in experiment [1] (setting [6]), 0.08 µg/mL (≈ 0.127 µM); in experiment [2] (setting [7]) it was 0.4 µg/mL (≈ 0.636 µM); in experiment [2] (setting [8]) it was 0.4 µg/mL (≈ 0.636 µM).
On to `COCCCO[C@@H](Cn1c(=O)n(C(C)(C)C(=O)NC(C)C)c(=O)c2c(C)c(-n3nccn3)sc21)c1cc(F)ccc1OC` [Compound I-69, (R)-2-(1-(2-(5-fluoro-2-methoxyphenyl)-2-(3-methoxy-propoxy)ethyl)-5-methyl-2,4-dioxo-6-(2H-1,2,3-triazol-2-yl)-1,4-dihydrothieno[2,3-d]pyrimidin-3(2H)-yl)-N-isopropyl-2-methylpropanamide], for which, in the experiment on C. krusei (setting [10]), the MIC was 0.25 to 1 µg/mL (≈ 0.405 to 1.62 µM). Moreover, the “Concentration at 90% Inhibition Fm” value in experiment [1] (setting [5]) was “AA (compound concentration of 0.08 ppm at 90% inhibition of fungal pathogens)”. Further, the IC90 in experiment [1], in experiment [2] (setting [11]) and in experiment [2] (setting [12]) was 0.08 µg/mL (≈ 0.13 µM) each time.
Take `C=CCNC(=O)C(C)(C)n1c(=O)c2c(C)c(-n3nccn3)sc2n(C[C@H](OC2CCOCC2)c2cc(F)ccc2OC)c1=O` [Compound I-70, (R)—N-allyl-2-(1-(2-(5-fluoro-2-methoxyphenyl)-2-((tetrahydro-2H-pyran-4-yl)oxy)ethyl)-5-methyl-2,4-dioxo-6-(2H-1,2,3-triazol-2-yl)-1,4-dihydrothieno[2,3-d]pyrimidin-3(2H)-yl)-2-methylpropanamide]: the MIC in the experiment on C. krusei (setting [9]) and with C. krusei (setting [10]) was 0.25 to 1 µg/mL (≈ 0.399 to 1.6 µM) throughout. For the same molecule, the “Concentration at 90% Inhibition Fm” value in experiment [1] (setting [5]) is “AA (compound concentration of 0.08 ppm at 90% inhibition of fungal pathogens)”. Moreover, the IC90 was determined as 0.08 µg/mL (≈ 0.128 µM) in experiment [1], 0.4 µg/mL (≈ 0.638 µM) in experiment [2] (setting [11]) and 0.4 µg/mL (≈ 0.638 µM) in experiment [2] (setting [12]).
Turning to `C=CCN(C)C(=O)C(C)(C)n1c(=O)c2c(C)c(-n3nccn3)sc2n(C[C@H](OC2CCOCC2)c2cc(F)ccc2OC)c1=O` [Compound I-71, (R)—N-allyl-2-(1-(2-(5-fluoro-2-methoxyphenyl)-2-((tetrahydro-2H-pyran-4-yl)oxy)ethyl)-5-methyl-2,4-dioxo-6-(2H-1,2,3-triazol-2-yl)-1,4-dihydrothieno[2,3-d]pyrimidin-3(2H)-yl)-N,2-dimethylpropanamide], the MIC with C. krusei (setting [3]) and in the experiment on C. krusei (setting [4]) was 0.25 to 1 µg/mL (≈ 0.39 to 1.56 µM) throughout. The IC90 in experiment [1] (setting [5]) was 0.08 µg/mL (≈ 0.125 µM); in experiment [1] (setting [6]), 0.08 µg/mL (≈ 0.125 µM); in experiment [2] (setting [7]), 2 µg/mL (≈ 3.12 µM); in experiment [2] (setting [8]) it was 2 µg/mL (≈ 3.12 µM).
With `C=CCO[C@@H](Cn1c(=O)n(C(C)(C)C(=O)NC(C)C)c(=O)c2c(C)c(-n3nccn3)sc21)c1cc(F)ccc1OC` [Compound I-72, (R)-2-(1-(2-(allyloxy)-2-(5-fluoro-2-methoxyphenyl)ethyl)-5-methyl-2,4-dioxo-6-(2H-1,2,3-triazol-2-yl)-1,4-dihydrothieno[2,3-d]pyrimidin-3(2H)-yl)-N-isopropyl-2-methylpropanamide], the MIC in the experiment on C. krusei (setting [9]) and in the experiment on C. krusei (setting [10]) was 0.25 to 1 µg/mL (≈ 0.428 to 1.71 µM) in each case. In experiment [1] (setting [5]), the “Concentration at 90% Inhibition Fm” value is listed as “AA (compound concentration of 0.08 ppm at 90% inhibition of fungal pathogens)”. Further, the IC90 in experiment [1] stood at 0.08 µg/mL (≈ 0.137 µM); in experiment [2] (setting [11]) it was 0.4 µg/mL (≈ 0.684 µM); in experiment [2] (setting [12]), 0.4 µg/mL (≈ 0.684 µM).
Take `COc1ccc(F)cc1[C@H](Cn1c(=O)n(C(C)(C)C(=O)NC2CC2)c(=O)c2c(C)c(-n3nccn3)sc21)OC(C)C` [Compound I-73, (R)—N-cyclopropyl-2-(1-(2-(5-fluoro-2-methoxyphenyl)-2-isopropoxyethyl)-5-methyl-2,4-dioxo-6-(2H-1,2,3-triazol-2-yl)-1,4-dihydrothieno[2,3-d]pyrimidin-3(2H)-yl)-2-methylpropanamide]: the results for the MIC with C. krusei (setting [3]) and in the experiment on C. krusei (setting [4]) were 0.25 to 1 µg/mL (≈ 0.428 to 1.71 µM) and 0.06 to 0.249 µg/mL (≈ 0.103 to 0.426 µM), respectively. For the same molecule, the IC90 in experiment [1] (setting [5]) turned out to be 0.08 µg/mL (≈ 0.137 µM); in experiment [1] (setting [6]), 0.08 µg/mL (≈ 0.137 µM); in experiment [2] (setting [7]), 0.4 µg/mL (≈ 0.684 µM); in experiment [2] (setting [8]), 0.4 µg/mL (≈ 0.684 µM).
